This note sets out measurements from patent publication US10251845B2, “Fatty acid cysteamine conjugates and their use as activators of autophagy” (Catabasis Pharmaceuticals, Inc., priority 2014, dated 2019).

Like-named read-outs stand apart in the source and are kept apart here.

Series [1] deals with ΔF508 CFTR (Homo sapiens, UniProt P13569, DEL508-508). The series is described as follows: Ussing chamber short circuit current in Fisher Rat Thyroid epithelial cells overexpressing ΔF508-CFTR. The class given is cell-based. The arrangement: expressed in transfected cells; host or cells: Fisher Rat Thyroid (FRT) epithelial cells, stably transfected. As to conditions: FRT cells. The protocol: The most prevalent disease causing mutation of the CF transmembrane conductance regulator (CFTR) chloride channel is the deletion of phenylalanine at position 508 in the primary sequence of CFTR (ΔF508-CFTR). This mutation causes a trafficking defect resulting in a severe reduction of ΔF508-CFTR protein at the cell surface. The trafficking defect can be corrected by incubation at low temperature (27° C. overnight) or pharmacologically by small molecules and CFTR correctors. Chloride transport function of Fisher Rat Thyroid (FRT) epithelial cells overexpressing ΔF508-CFTR in monolayers grown on Snapwell™ filter inserts will be monitored as the CFTR agonist evoked short circuit (ISC) current output of an Ussing epithelial voltage clamp apparatus. An objective of this study is to measure the ability of test compounds to restore function to defective ΔF508-CFTR in FRT epithelial cell monolayers.
Sequence of ΔF508 CFTR (P13569 with tags, fused parts or gaps DEL508-508): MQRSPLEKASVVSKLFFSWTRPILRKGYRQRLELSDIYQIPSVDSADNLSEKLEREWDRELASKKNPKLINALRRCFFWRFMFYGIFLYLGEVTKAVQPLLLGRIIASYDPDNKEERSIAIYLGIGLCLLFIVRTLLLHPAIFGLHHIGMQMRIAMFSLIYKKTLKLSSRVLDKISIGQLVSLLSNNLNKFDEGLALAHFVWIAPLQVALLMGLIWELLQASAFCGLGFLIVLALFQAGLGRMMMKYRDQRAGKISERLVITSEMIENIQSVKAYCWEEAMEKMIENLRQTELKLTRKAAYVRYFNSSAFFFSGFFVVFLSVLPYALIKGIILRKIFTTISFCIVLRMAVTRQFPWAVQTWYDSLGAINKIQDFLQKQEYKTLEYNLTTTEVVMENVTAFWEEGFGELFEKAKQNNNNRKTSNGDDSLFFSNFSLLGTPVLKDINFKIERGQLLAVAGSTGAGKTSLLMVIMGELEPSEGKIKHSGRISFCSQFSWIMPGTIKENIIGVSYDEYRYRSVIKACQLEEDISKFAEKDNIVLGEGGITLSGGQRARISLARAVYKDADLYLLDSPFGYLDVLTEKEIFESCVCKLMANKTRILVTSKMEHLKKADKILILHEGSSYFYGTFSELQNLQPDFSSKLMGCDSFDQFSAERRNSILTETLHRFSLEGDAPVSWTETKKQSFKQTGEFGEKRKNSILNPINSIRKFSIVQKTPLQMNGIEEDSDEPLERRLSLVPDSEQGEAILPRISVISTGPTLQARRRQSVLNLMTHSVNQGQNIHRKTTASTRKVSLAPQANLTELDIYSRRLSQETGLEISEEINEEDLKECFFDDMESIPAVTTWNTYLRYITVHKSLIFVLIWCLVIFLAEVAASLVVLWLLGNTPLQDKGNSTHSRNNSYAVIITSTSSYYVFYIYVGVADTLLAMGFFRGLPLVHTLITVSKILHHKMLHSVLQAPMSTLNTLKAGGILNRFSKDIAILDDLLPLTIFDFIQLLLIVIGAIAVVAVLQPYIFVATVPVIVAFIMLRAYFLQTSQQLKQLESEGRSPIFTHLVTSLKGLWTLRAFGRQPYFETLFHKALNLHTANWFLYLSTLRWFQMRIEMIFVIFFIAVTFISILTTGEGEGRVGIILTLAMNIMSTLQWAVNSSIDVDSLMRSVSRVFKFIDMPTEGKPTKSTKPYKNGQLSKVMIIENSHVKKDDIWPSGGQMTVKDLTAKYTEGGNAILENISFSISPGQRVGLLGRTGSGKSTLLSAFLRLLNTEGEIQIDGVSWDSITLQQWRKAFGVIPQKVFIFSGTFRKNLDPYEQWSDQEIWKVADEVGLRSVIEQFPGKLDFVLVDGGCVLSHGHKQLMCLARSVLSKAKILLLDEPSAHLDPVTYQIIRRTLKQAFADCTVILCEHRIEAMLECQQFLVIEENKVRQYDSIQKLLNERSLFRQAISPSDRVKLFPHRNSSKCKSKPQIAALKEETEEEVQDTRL
Measurement of corrector efficacy is divided into two phases. The initial phase is incubation of epithelia with the test compounds for a period of time (that can range from 2 hours to one or two days) in a 37° C. incubator and the second phase is measurement of epithelial ΔF508-CFTR chloride channel current with an epithelial voltage clamp (Ussing assay). The short circuit current (ISC) is measured under short circuit conditions (0 mV transepithelial potential). The ISC magnitude is an index of corrector efficacy and is compared to vehicle and positive control.
Cryopreserved FRT cells stably transfected with ΔF508-CFTR cDNA (Pedemonte et al. (2005) J. CLIN. INVEST., 115, p. 2564-2571) were expanded and plated on Snapwell™ filters for measurement of short circuit current in an Ussing apparatus (Physiologic Instruments, Inc., Sand Diego, Calif.). Cells were grown in Coon's modification of Ham's F-12 media supplemented with zeocin and G-418.
To conduct the assay, a compound of the invention was solubilized as follows: • 1) Prepare 25 mM stock solution in 100% DMSO. • 2) Dilute 12 μL of 25 mM stock solution in 1.20 mL of FBS to make 250 μM intermediate dilution 10× stock (1% DMSO, 99% FBS). Gently vortex all solutions until the solution becomes clear. • 3) Prepare final dilution of 10 μM in 10 mL of Coon's media per well (4 wells×2 mL per well bottom+0.2 mL per insert top=8.8 mL and 1.2 mL reserve for handling losses) by addition of 400 μL of 10× stock and 600 μL of 10× carrier (1% DMSO, 99% FBS) to 9000 μL of Coon's media.
For this example, the test compound was solubilized and added to the appropriate inserts of Ussing chambers (n=4 for each test compound, final test concentration of 10 μM). A DMSO vehicle control and a positive control (VX-809 at 3 μM) were also used. For this particular example, all the test articles, including the positive control, were incubated with the cells for a period of 4 hours. The FRT cell monolayers grown on Snapwell™ filter inserts were transferred to Physiologic Instruments Ussing recording chambers (Physiologic Instruments, Inc., San Diego, Calif.) and superfused with HB-PS on the basolateral side and 78CF-PS on the apical side. One or more 6-channel or 8-channel Physiologic Instruments VCC MC6 or VCC MC8 epithelial voltage clamps were then used in combination to record the short circuit current (ISC) during the entire run. To initiate the ISC measurement, amphotericin (100 μM) was added to the basolateral side of the Snapwell™ filter insert to permeabilize the epithelial cells for 15 min. Forskolin (10 μM), IBMX (100 μM), Genistein (20 μM) and the CFTRinh-172 (20 μM) were added sequentially after the following incubation periods (15 min, 20 min, 10 min, 15 min and 15 min respectively). Data acquisition and analyses were performed using iWorx data acquisition hardware and Labscribe 2 software (iWorx, Dover, N.H.). […]

Series [2] in a line: Oral cannulated rat PK study (portal and jugular vein). The class given is in vivo, Sprague Dawley rats. As to conditions: for AUC(0-t) / Cmax: Sprague Dawley. From the text:
The compounds of the invention were solubilized in a mixture of excipients consisting 40% Tween, 50% Peceol, 10% PEG400 and diluted with water to form a self-emulsifying aqueous mixture for oral administration to animals. For this study, Sprague Dawley rats that have been surgically implanted with indwelling jugular vein cannula (JVC) and portal vein cannula (PVC) were used (Agilux, Worcester, Mass.). This approach using double-cannulated rats allowed the measurement of the drug concentration that was delivered in the portal vein as well as the drug concentration that was present in the peripheral. For the PK study, serial blood collection was carried out at both the portal and jugular vein at the following time points: 10, 20, 40 min and 1, 2, 4 and 6 hours post dose. The bioanalytical portion of the PK study was carried out using an LC/MS/MS system (Agilent Model No: HPLC: 1200, MS: 6410) and analyzed with the appropriate software (WinNonlin Phoenix 64 6.3.0 395).

Setting [3] is: II-3 (10 μM)+VX-809 (3 μM)+VX-770 (100 nM), 24 hours, positive control VX-809+VX-770 = 100%.

Consider `CC/C=C\C/C=C\C/C=C\C/C=C\C/C=C\C/C=C\CCC(=O)NCCSSC(C)(C)CNC(=O)c1cccnc1` [II-3, N-(2-((2-((4Z,7Z,10Z,13Z,16Z,19Z)-docosa-4,7,10,13,16,19-hexaenamido)ethyl)disulfanyl)-2-methylpropyl)nicotinamide], for which the “short circuit current trace” value in series [1] (10 μM with VX-770 or VX-809+VX-770, 24 hours) is listed as “functionally active”. The “steady state response upon the addition of Forskolin” value in series [1] (II-3 (10 μM)+VX-770 compared with vehicle+VX-770, 24 hours) is given as “modest response”. In series [1] (setting [3]), the “steady state response upon the addition of Forskolin, % of control” value is listed as 143.6% and the “steady state response upon the addition of the CFTRinh-172, % of control” value amounted to 144.0%. For the same compound, the AUC(0-t) in series [2] (jugular vein blood (peripheral), rat, oral, systemic circulation (jugular vein), read-out: peripheral AUClast) amounted to 300 ± 103 ng·h/mL. Besides, the Cmax (as a rule, the peak of the concentration-time curve) in series [2] (jugular vein blood (peripheral), rat, oral, systemic circulation (jugular vein), read-out: peripheral Cmax) was 102 ± 16.9 ng/mL. In series [2] (portal vein blood, rat, oral, portal vein, read-out: portal AUClast), the AUC(0-t) was found to be 679 ± 226 ng·h/mL. Moreover, the Cmax in series [2] (portal vein blood, rat, oral, portal vein, read-out: portal Cmax) worked out at 331 ± 120 ng/mL. Further, the “increase in the AUC, II-3 vs II-2” value in series [2] (dosed orally to rats, Example 23) stood at 100 fold. Also, in series [2] (rat, oral), the “peripheral Cmax of parent II-3 relative to parent II-2” value is listed as 100 fold and the “resistance to first pass metabolism” value is on record as “more resistant”. In series [2] (rat, oral, as restated in Example 23), this compound registered a peripheral AUClast of 102 ng·h/mL. In series [2] (summary of Example 18), the “oral exposure in the rat compared with II-2” value is given as “better oral exposure”.
